From patent US10144929B2, “Polypeptide inhibitors of Smad3 polypeptide activities” (Mayo Foundation for Medical Education and Research, priority 2016, dated 2018)
Entries after “also recorded” stand apart in the source; their conditions may differ.

What was measured:
[1] = system: Smad2 targets (MMP2, Goosecoid, Furin, MixL); assay: RT-PCR/qPCR of Smad2 responsive genes in AKR-2B cells; assay type: cell-based; conditions: 5 ng/mL TGFβ, 24 hours
Experimental: (§1) FIGS. 2A-C. TAT-SH3 inhibits Smad3-dependent responses. (A) AKR-2B cells were transiently transfected with a Smad3 (3TP), Smad2 (ARE), or Smad1/5/8 (BRE) reporter construct, and luciferase activity determined following 12 hours incubation in the absence (−) or presence (+) of the indicated ligand (5 ng/mL TGFβ; 10 ng/mL BMP4) or TAT-SNX9(SH3) fusion polypeptide (1.5 μM). Data represent the mean+/−SEM of three experiments. (B) RT-PCR analysis of Smad3 (PAI-1 and CTGF) and Smad2 (MMP2) responsive gene following 24 hour treatment of AKR-2B cells with the indicated concentration of TAT-SNX9(SH3) fusion polypeptide or 5 ng/mL TGFβ. Loading was verified by GAPDH expression. (C) Soft agar colony formation was performed following seven days growth in the presence (+) or absence (−) of TGFβ (10 ng/mL) or the indicated TAT-SNX9(SH3) fusion polypeptide (1.5 μM). […]
(§2) FIGS. 3A-E. Inhibition of Smad3 signaling by a defined region of the SH3 domain in SNX9. […] (B) Nuclear fractions were prepared and assessed as in FIG. 1B following transduction with the indicated TAT-SNX9(SH3) fusion polypeptide (Left). Quantitation (mean+/−sd) of nuclear pSmad2 or pSmad3 from 2 experiments (Right). (C) Immunofluorescence of nuclear Smad3 was determined as in FIG. 1C from 30 cells in each of two experiments in the absence (−) or presence (+) of 5 ng/mL TGFβ and the indicated TAT-SNX9(SH3) fusion polypeptide (1.5 μM). […]

[2] = system: AKR-2B cells; assay: Smad3-regulated biological responses: scratch assays and soft agar colony formation; assay type: cell-based; conditions: FIGS. 4C and 4D: scratch assay (5 ng/mL TGFβ, 24 hours) and soft agar
Experimental: FIGS. 4A-E. A point mutant of TAT-SH3-2 abolishes the inhibitory action on Smad3 responses. (A) Schematic depicting TAT-SNX9(SH3) fusion polypeptide constructs (Left). * in SH3-2M (mutant) reflects G to V mutations at amino acids 36-38. His pull down of pSmad3 bound to TAT-SNX9(SH3) fusion polypeptides was performed as in FIG. 3A (Middle). AKR-2B cells were transduced for 90 minutes with 1.5 μM of TAT-SH3-2, TAT-SH3-2M, or TAT-LC. Western analysis was performed for the indicated proteins following 24 hour treatment in the absence (−) or presence (+) of TGFβ (5 ng/mL) or SB431542 (10 μM) (Right). (B) qPCR of Smad3 (CTGF and Smad7) and Smad2 (Goosecoid and MixL) responsive genes as in FIG. 3D. Data reflect mean+/−sd from three experiments. […] (E) AKR-2B cells were transiently transfected with a BMP (BRE), EGF (SRE), or PDGF (MMP-1) reporter construct and luciferase activity determined following 12 hour incubation in the absence (−) or presence (+) of the indicated ligand (10 ng/mL BMP4, EGF, or PDGF), inhibitor (10 μM Dorsomophin; 3 μM Lapatinib; 2 μM CP868) or TAT-SNX9(SH3) fusion polypeptide (1.5 μM). […]
Soft agar assays were performed as described elsewhere (Rahimi et al., Cancer Res., 69(1):84-93 (2009)). […] Following 7 days growth at 37° C., the number of colonies>100 μm in diameter were counted using an Optronix Gelcount™ (Oxford Optronics, Milton, Abingdon, UK). […]

[3] = system: Smad3 targets (PAI-1, CTGF, Smad7); assay: RT-PCR/qPCR/Western of Smad3 responsive genes in AKR-2B cells; assay type: cell-based; conditions: 5 ng/mL TGFβ, 24 hours
Experimental: as §1, §2

[4] = target: T1, pSmad3 (Mus musculus, UniProt Q8BUN5); assay: His pull down of pSmad3 by TAT-SNX9(SH3) fusion polypeptides; assay type: binding; conditions: lysates of TGFβ treated AKR-2B cultures
T1 construct: endogenous in cells; host or cells: AKR-2B cells
Experimental: FIGS. 3A-E. Inhibition of Smad3 signaling by a defined region of the SH3 domain in SNX9. (A) Cartoon depicting constructs used for His pull down assays. AKR-2B lysates were incubated with the indicated TAT-SNX9(SH3) fusion polypeptide and immunoblotted for bound pSmad3 or total TAT-SNX9(SH3) fusion polypeptide (His). (B) Nuclear fractions were prepared and assessed as in FIG. 1B following transduction with the indicated TAT-SNX9(SH3) fusion polypeptide (Left). Quantitation (mean+/−sd) of nuclear pSmad2 or pSmad3 from 2 experiments (Right). (C) Immunofluorescence of nuclear Smad3 was determined as in FIG. 1C from 30 cells in each of two experiments in the absence (−) or presence (+) of 5 ng/mL TGFβ and the indicated TAT-SNX9(SH3) fusion polypeptide (1.5 μM). […]
FIGS. 4A-E. A point mutant of TAT-SH3-2 abolishes the inhibitory action on Smad3 responses. […] (E) AKR-2B cells were transiently transfected with a BMP (BRE), EGF (SRE), or PDGF (MMP-1) reporter construct and luciferase activity determined following 12 hour incubation in the absence (−) or presence (+) of the indicated ligand (10 ng/mL BMP4, EGF, or PDGF), inhibitor (10 μM Dorsomophin; 3 μM Lapatinib; 2 μM CP868) or TAT-SNX9(SH3) fusion polypeptide (1.5 μM). […]

T1 sequence (Q8BUN5 whole entry, the tested form may be a part): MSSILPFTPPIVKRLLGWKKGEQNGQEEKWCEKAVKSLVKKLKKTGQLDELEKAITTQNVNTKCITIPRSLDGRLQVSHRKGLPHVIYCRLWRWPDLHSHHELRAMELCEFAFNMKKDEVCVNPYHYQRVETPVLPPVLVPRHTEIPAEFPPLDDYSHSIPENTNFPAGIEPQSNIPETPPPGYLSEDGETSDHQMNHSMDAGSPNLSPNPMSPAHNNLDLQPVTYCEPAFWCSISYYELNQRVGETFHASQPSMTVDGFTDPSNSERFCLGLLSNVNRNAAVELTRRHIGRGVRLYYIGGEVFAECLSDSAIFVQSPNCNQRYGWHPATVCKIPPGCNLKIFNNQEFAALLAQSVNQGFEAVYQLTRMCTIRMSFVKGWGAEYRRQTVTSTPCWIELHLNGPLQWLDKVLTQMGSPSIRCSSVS

Row | Substance | induction of Smad2 targets [1] | Smad3-regulated biological responses [2] | TGFβ induction of Smad3 targets / Smad3-dependent transcriptional responses [3] | pSmad3 binding [4]
1 | TAT-SH3-2: TAT-SNX9(SH3) fusion polypeptide having SNX9 amino acids 21-51 (31 mer) (TVNEGEIITITNPDVGGGWLEGRNIKGERGL; left off: small tags and cut ends) | Neither polypeptide impacted the induction of Smad2 targets | inhibitory | prevented Smad3-dependent transcriptional responses; also recorded: prevented TGFβ induction of Smad3 targets such as CTGF, PAI-1, and Smad7 to a similar degree as inhibition of TβRI | bound pSmad3 to a similar degree as a TAT-SNX9(SH3) fusion polypeptide having the full length SH3 domain
2 | TAT-SH3-2M: TAT-SH3-2 with G to V point mutations at amino acids 36-38; inactive TAT-SNX9 peptide unable to bind pSmad3 (TVNEGEIITITNPDVVVVWLEGRNIKGERGL; left off: small tags and cut ends) | Neither polypeptide impacted the induction of Smad2 targets | not inhibitory | abolished the inhibitory effect | unable to bind pSmad3
